Experimental findings from ChEMBL document CHEMBL4382196, “Unraveling the Prenylation-Cancer Paradox in Multiple Myeloma with Novel Geranylgeranyl Pyrophosphate Synthase (GGPPS) Inhibitors” (J Med Chem, 2018) are described below.

The test system of one assay is T98G. In words: Antiproliferative activity against human T98G cells at 10 uM after 72 hrs by celltiter-glo luminescent assay. Type of assay: functional, cell-based. (ATP-based viability assays read luminescence as a measure of living cells.)
The test system of assay [1] is RPMI-8226. In words: cells. As to conditions: Homo sapiens, RPMI-8226, 72 h.
For a further assay, the system named is HT-29. Put plainly: Antiproliferative activity against human HT-29 cells at 10 uM after 72 hrs by celltiter-glo luminescent assay. Type of assay: functional, cell-based.
Assay [2] has as its target T1, Geranylgeranyl pyrophosphate synthase (Homo sapiens, UniProt O95749).
T1 sequence (O95749 whole entry): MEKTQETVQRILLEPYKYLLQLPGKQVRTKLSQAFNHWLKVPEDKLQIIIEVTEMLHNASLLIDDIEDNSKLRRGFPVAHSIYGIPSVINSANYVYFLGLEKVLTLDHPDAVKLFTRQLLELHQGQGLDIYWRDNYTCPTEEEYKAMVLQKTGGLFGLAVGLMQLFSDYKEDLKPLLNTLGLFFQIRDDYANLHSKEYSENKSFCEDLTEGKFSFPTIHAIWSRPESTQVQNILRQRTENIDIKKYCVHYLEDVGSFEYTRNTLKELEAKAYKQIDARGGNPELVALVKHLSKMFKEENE

The test system of a further assay is HT-1080. Put plainly: Antiproliferative activity against human HT1080 cells at 10 uM after 72 hrs by celltiter-glo luminescent assay. The format is functional, cell-based.
For another assay, the system named is A549. Put plainly: Antiproliferative activity against human A549 cells at 10 uM after 72 hrs by celltiter-glo luminescent assay. Type of assay: functional, cell-based.
The target of assay [3] is T2, Farnesyl pyrophosphate synthase (Homo sapiens, UniProt P14324).
T2 sequence (P14324 whole entry): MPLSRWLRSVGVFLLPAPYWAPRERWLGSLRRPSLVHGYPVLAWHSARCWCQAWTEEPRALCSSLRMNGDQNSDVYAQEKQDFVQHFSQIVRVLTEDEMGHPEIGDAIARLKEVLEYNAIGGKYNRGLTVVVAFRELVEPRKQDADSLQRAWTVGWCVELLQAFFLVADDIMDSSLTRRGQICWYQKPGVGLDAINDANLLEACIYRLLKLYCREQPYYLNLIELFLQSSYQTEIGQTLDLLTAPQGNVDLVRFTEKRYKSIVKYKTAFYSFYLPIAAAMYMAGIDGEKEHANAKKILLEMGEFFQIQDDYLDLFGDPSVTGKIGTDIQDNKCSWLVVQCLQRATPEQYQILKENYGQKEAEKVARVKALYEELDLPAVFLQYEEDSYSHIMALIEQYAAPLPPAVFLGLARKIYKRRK
In words: Inhibition of human FPPS using [14C]-IPP and […] after 10 mins by scintillation counting.

Another assay has as its system MIA PaCa-2. Put plainly: Antiproliferative activity against human MIAPaCa2 cells at 10 uM after 72 hrs by celltiter-glo luminescent assay. Type of assay: functional, cell-based.
In another assay the test system is HCT-116. Put plainly: Antiproliferative activity against human HCT116 cells at 10 uM after 72 hrs by celltiter-glo luminescent assay. The format is functional, cell-based.
A further assay has as its system NCI/ADR-RES. Put plainly: Antiproliferative activity against human NCI-ADR-RES cells after 72 hrs by celltiter-glo luminescent assay. The format is functional, cell-based.
The test system of assay [4] is RPMI-8226. In words: Induction of apoptosis in human RPMI8226 cells assessed as viable cells at 10 nM after 72 hrs by APC Annexin V/eFluor-780-viability double staining-based FACS analysis (reference value: 87.3%). The following applies: RPMI-8226, 72 h, read-out: Activity. Type of assay: functional. For orientation: In flow cytometry, cells or beads pass a laser one at a time.

The test system of assay [5] is RPMI-8226. In words: Induction of apoptosis in human RPMI8226 cells at 10 nM after 72 hrs in presence of GGOH by APC Annexin V/eFluor-780-viability double staining-based FACS analysis. The format is functional, cell-based.
Assay [6] has as its system RPMI-8226. In words: Induction of apoptosis in human RPMI8226 cells assessed as late apoptotic cells at 10 nM after 72 hrs by APC Annexin V/eFluor-780-viability double staining-based FACS analysis (reference value: 5.80%). Type of assay: functional.
Assay [7] deals with RPMI-8226. In words: Induction of apoptosis in human RPMI8226 cells assessed as necrotic cells at 10 nM after 72 hrs by APC Annexin V/eFluor-780-viability double staining-based FACS analysis (reference value: 3.60%). The format is functional.
The subject of assay [8] is RPMI-8226. In words: Induction of apoptosis in human RPMI8226 cells assessed as early apoptotic cells at 10 nM after 72 hrs by APC Annexin V/eFluor-780-viability double staining-based FACS analysis (reference value: 3.31%). Type of assay: functional.
The target of assay [9] is T3, Farnesyl pyrophosphate synthase (Homo sapiens) (UniProt P14324).
T3 sequence (whole entry): T2 sequence (P14324 whole entry)
In words: Inhibition of human FPPS at 1 uM using [14C]-IPP and […] after 10 mins by scintillation counting relative to control.

Assay [10] addresses T4, Geranylgeranyl pyrophosphate synthase (Homo sapiens) (UniProt O95749).
T4 sequence (whole entry): T1 sequence (O95749 whole entry)
In words: Inhibition of human N-terminal His6-tagged GGPPS expressed in Escherichia coli BL21(DE3) at 1 uM using [14C]-IPP and FPP as substrates after 10 mins by scintillation counting relative to control.

Assay [11] has as its target T3, Farnesyl pyrophosphate synthase (Homo sapiens). Put plainly: Inhibition of human FPPS at 10 uM using [14C]-IPP and […] after 10 mins by scintillation counting.
For assay [12], the system named is RPMI-8226. In words: Antiproliferative activity against human RPMI8226 cells at 10 uM after 72 hrs by MTT assay. Type of assay: functional, cell-based.
Assay [13] deals with T4, Geranylgeranyl pyrophosphate synthase (Homo sapiens). In words: Inhibition of human N-terminal His6-tagged GGPPS expressed in Escherichia coli BL21(DE3) at 10 uM using [14C]-IPP and FPP as substrates after 10 mins by scintillation counting.
Assay [14] deals with RPMI-8226. In words: Induction of apoptosis in human RPMI8226 cells assessed as early apoptotic cells at 1 uM after 72 hrs by APC Annexin V/eFluor-780-viability double staining-based FACS analysis (reference value: 3.31%). Type of assay: functional.
For assay [15], the system named is RPMI-8226. Put plainly: Induction of apoptosis in human RPMI8226 cells assessed as viable cells at 1 uM after 72 hrs by APC Annexin V/eFluor-780-viability double staining-based FACS analysis (reference value: 87.3%). The format is functional. As to conditions: RPMI-8226, 72 h, read-out: Activity.
Assay [16] concerns RPMI-8226. In words: Induction of apoptosis in human RPMI8226 cells assessed as necrotic cells at 1 uM after 72 hrs by APC Annexin V/eFluor-780-viability double staining-based FACS analysis (reference value: 3.60%). The format is functional.
Assay [17] deals with RPMI-8226. In words: Induction of apoptosis in human RPMI8226 cells assessed as late apoptotic cells at 1 uM after 72 hrs by APC Annexin V/eFluor-780-viability double staining-based FACS analysis (reference value: 5.80%). Type of assay: functional.
The subject of a further assay is Hydroxyapatite. Put plainly: Binding affinity to bone mineral hydroxyapatite at 50 uM by 1H NMR assay.
Assay [18] deals with RPMI-8226. In words: Induction of apoptosis in human RPMI8226 cells assessed as viable cells at 10 uM after 72 hrs by APC Annexin V/eFluor-780-viability double staining-based FACS analysis (reference value: 87.3%). Type of assay: functional. As to conditions: RPMI-8226, 72 h, read-out: Activity.
In assay [19] the test system is RPMI-8226. Put plainly: Induction of apoptosis in human RPMI8226 cells assessed as necrotic cells at 10 uM after 72 hrs by APC Annexin V/eFluor-780-viability double staining-based FACS analysis (reference value: 3.60%). The format is functional.
For assay [20], the system named is RPMI-8226. In words: Induction of apoptosis in human RPMI8226 cells assessed as early apoptotic cells at 10 uM after 72 hrs by APC Annexin V/eFluor-780-viability double staining-based FACS analysis (reference value: 3.31%). Type of assay: functional.
Assay [21] relates to RPMI-8226. Put plainly: Induction of apoptosis in human RPMI8226 cells assessed as late apoptotic cells at 10 uM after 72 hrs by APC Annexin V/eFluor-780-viability double staining-based FACS analysis (reference value: 5.80%). Type of assay: functional.
Assay [22] deals with Geranylgeranyl pyrophosphate synthase (Homo sapiens, UniProt O95749, Y246D).
For the next assay, the species on record is Homo sapiens. Put plainly: Selectivity ratio of IC50 for human FPPS to IC50 for human N-terminal His6-tagged GGPPS.
Assay [23] has as its system RPMI-8226. Put plainly: Induction of apoptosis in human RPMI8226 cells after 72 hrs by APC Annexin V/eFluor-780-viability double staining-based FACS analysis. The format is functional, cell-based.
Assay [24] has as its system T5, Geranylgeranyl pyrophosphate synthase (Homo sapiens), O95749 [Y246D].
T5 sequence (whole entry): T1 sequence (O95749 whole entry) with Y246D
In words: Binding affinity to human N-terminal His6-tagged GGPPS Y246D mutant expressed in Escherichia coli BL21(DE3) assessed as enzyme-inhibitor complex formation by measuring thermal stability in presence of Mg2+ ions by differential scanning fluorimetry.

Residue numbers refer to the chain shown, from its start. The source made the active and inactive calls. No cut-off for these calls is given here. Bounds are passed on as bounds.

As a reminder, the EC50 is the concentration giving half of the maximal effect. The low end stands for greater potency, the high end for weaker potency. Usually IC50 stands for the concentration that inhibits the measured activity by half. Broadly, the inhibition is the drop in the measured response relative to a control, in per cent.

Geranylgeranyl pyrophosphate synthase (Homo sapiens, UniProt O95749, Y246D), sequence (O95749 whole entry Y246D): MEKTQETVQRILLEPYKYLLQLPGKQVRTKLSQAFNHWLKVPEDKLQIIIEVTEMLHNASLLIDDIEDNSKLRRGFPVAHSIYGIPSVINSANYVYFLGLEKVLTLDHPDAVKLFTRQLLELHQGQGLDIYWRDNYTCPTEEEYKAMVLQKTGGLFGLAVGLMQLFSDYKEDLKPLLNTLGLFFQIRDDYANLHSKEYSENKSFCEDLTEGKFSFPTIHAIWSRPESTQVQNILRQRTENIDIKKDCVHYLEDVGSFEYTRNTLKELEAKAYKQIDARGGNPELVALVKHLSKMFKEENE

Turning to `COc1ccc(NC(=O)c2cccc(-c3nc(NC(P(=O)(O)O)P(=O)(O)O)c4ccsc4n3)c2)cc1`, the result in the assay on T98G, in the assay with HT-29, in the assay with HT-1080, in the assay on A549, in the assay with MIA PaCa-2 and with HCT-116 was Active. The result with NCI/ADR-RES was Active. In addition, a half-maximal response in the assay with RPMI-8226 [1] (EC50) required 0.23 µM. In addition, the IC50 in [2] came out at 0.075 µM; in assay [3], 1.3 µM.
Consider `CC(C)C[C@H](NC(=O)[C@H](Cc1ccccc1)NC(=O)c1cnccn1)B(O)O` [BORTEZOMIB], for which the viability at 0.01 µM with RPMI-8226 [4] was 0.92%. The outcome with RPMI-8226 [5] was Active. The Activity with RPMI-8226 [6] was 78.7%; in the assay with RPMI-8226 [7], 20.1%; in the assay on RPMI-8226 [8], 0.26%.
Turning to `O=P(O)(O)C(Nc1ncnc2sccc12)P(=O)(O)O`, the IC50 was greater than 1 µM in assay [2] and 0.8 µM in [3]. Also, the inhibition came to 70% in [9] and 40% in assay [10].
Consider `O=C(Nc1cccc(-c2cc3c(NC(P(=O)(O)O)P(=O)(O)O)ncnc3s2)c1)c1ccccc1`, for which the inhibition result in assay [11] and in assay [13] was “inactive” in each case. The result in the assay on RPMI-8226 [12] was inactive.
In the case of `O.O=P(O)(O)C(O)(Cn1ccnc1)P(=O)(O)O` [ZOLEDRONIC ACID], the Activity in the assay with RPMI-8226 [14] stood at 2.55%; in the assay with RPMI-8226 [16], 5.04%; with RPMI-8226 [17], 6.53%. The viability at 1 µM in the assay with RPMI-8226 [15] turned out to be 85.9%. In addition, the outcome with Hydroxyapatite was Active.
In the assay on RPMI-8226 [1], `O=P(O)(O)C(Nc1ncnc2sc(-c3ccc(C(F)(F)F)cc3)cc12)P(=O)(O)O` showed an EC50 greater than 100 µM. This molecule also returned an IC50 in [2] of 1.5 µM.
On to `CC(C)=CCC/C(C)=C/CC/C(C)=C/CC/C(C)=C/CO` [GERANYLGERANIOL], for which the viability at 10 µM in the assay on RPMI-8226 [18] came to 87.4%. Besides, the Activity in the assay with RPMI-8226 [19] was determined as 2.91%; in the assay on RPMI-8226 [20], 4.71%; with RPMI-8226 [21] it was 4.96%.
`O=P(O)(O)C(Nc1nc(-c2ccccc2)nc2sccc12)P(=O)(O)O` yielded an IC50 in assay [3] of 0.55 µM.
As to `O=C(Nc1ccccc1)c1cccc(-c2nc(NC(P(=O)(O)O)P(=O)(O)O)c3ccsc3n2)c1`, the EC50 in the assay on RPMI-8226 [1] was 0.46 µM. The 50% inhibitory concentration (IC50) in [2] was 0.049 µM; in [22], 0.05 µM. The outcome with Hydroxyapatite was Active.
Regarding `O=C(Nc1cccc(-c2nc(NC(P(=O)(O)O)P(=O)(O)O)c3ccsc3n2)c1)c1ccccc1`, in the assay with RPMI-8226 [1], the response was half-maximal at 0.5 µM (EC50). The Ratio IC50 in the assay filed under Homo sapiens was determined as 30. The molecule further came in with an IC50 in assay [22] of 0.039 µM.
In the assay with RPMI-8226 [1], `O=P(O)(O)C(O)(Cc1ccccn1)P(=O)(O)O` yielded an EC50 of 11 µM. For the same molecule, the result with Hydroxyapatite was Active.
`COc1ccc(C(=O)Nc2cccc(-c3nc(NC(P(=O)(O)O)P(=O)(O)O)c4ccsc4n3)c2)cc1` showed an IC50 in assay [22] of 0.092 µM.
With `Cc1ccc(C(=O)Nc2cccc(-c3nc(NC(P(=O)(O)O)P(=O)(O)O)c4ccsc4n3)c2)cc1`, the EC50 with RPMI-8226 [1] is 0.72 µM. In the assay on RPMI-8226 [23], the Activity result was “Dose-dependent effect”. For the same molecule, the IC50 in [3] worked out at 2.6 µM.
As to `O=C(Nc1cccc(-c2nc(NC(P(=O)(O)O)P(=O)(O)O)c3ccsc3n2)c1)c1ccc(F)cc1`, the IC50 is 0.042 µM in assay [2] and greater than 1 µM in assay [3]. The molecule also returned an inhibition in assay [9] of 20%. Also, in assay [24], the outcome was Active.
